Earlier results in patent US6770262B2, “Nasal administration of agents for the treatment of gastroparesis” (priority 2000, dated 2004).
Read-outs that look alike come from different tables or passages of the source.

Conditions: for onset of action: injection form

time of peak plasma concentrations (after a single oral dose): 1 to 2 h
Compound: CCN(CC)CCNC(=O)c1cc(Cl)c(N)cc1OC [Metoclopramide]
onset of action (intramuscular administration): 10 to 15 min
onset of action (intravenous administration): 1 to 3 min
